In this assay the target is Disintegrin and metalloproteinase domain-containing protein 17 (Homo sapiens, UniProt P78536). Briefly: ADAM17 protease inhibitors, dose response, counter-screen for ADAM10 exosite inhibitor project, biochemical, quenched FRET substrate (AID 743253). For orientation: The purpose of a counterscreen is to sort out artefacts and off-target activity.
Sequence of Disintegrin and metalloproteinase domain-containing protein 17 (P78536 whole entry, the tested form may be a part): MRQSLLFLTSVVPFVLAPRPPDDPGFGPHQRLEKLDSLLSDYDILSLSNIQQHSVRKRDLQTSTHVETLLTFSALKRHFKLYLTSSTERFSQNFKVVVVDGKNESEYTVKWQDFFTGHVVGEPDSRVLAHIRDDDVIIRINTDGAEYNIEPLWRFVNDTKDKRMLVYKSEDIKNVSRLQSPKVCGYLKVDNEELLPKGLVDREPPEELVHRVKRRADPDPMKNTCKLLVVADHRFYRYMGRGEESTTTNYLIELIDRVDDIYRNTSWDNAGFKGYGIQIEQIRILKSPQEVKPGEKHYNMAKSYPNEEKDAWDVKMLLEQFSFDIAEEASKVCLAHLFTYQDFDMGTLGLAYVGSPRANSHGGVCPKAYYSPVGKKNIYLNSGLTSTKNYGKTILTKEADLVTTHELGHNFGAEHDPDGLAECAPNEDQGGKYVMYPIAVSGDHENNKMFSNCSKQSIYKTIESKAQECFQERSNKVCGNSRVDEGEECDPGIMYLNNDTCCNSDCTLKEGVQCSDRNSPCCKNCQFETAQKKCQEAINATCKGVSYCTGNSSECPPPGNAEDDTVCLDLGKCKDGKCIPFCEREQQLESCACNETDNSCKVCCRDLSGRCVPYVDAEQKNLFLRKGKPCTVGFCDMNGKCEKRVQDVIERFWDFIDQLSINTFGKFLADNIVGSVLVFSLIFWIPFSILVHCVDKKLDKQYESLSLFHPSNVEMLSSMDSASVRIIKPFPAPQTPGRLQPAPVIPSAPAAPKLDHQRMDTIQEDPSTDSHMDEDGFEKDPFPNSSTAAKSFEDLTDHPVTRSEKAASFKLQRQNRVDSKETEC
Broadly, the IC50 is the point on the concentration scale where inhibition reaches its midpoint. A lower IC50 goes with greater potency in that assay. In turn, `N#CCSc1nc2cc(C(=O)N3CCC(C(N)=O)CC3)ccc2c2nc3ccccc3n12` [1-({6-[(cyanomethyl)thio]benzimidazo[1,2-c]quinazolin-3-yl}carbonyl)piperidine-4-carboxamide] registered an IC50 of 69.6 µM.

For the compound `COc1ccc(N2C(=O)NC(=O)C(=Cc3c[nH]c4ccc(Br)cc34)C2=O)c(OC)c1` [(5E)-5-[(5-bromo-1H-indol-3-yl)methylene]-1-(2,4-dimethoxyphenyl)pyrimidine-2,4,6(1H,3H,5H)-trione], half-maximal inhibition (IC50) was put at 12 µM.

`O=C1C=CC([N+](=O)[O-])=CC1CN=Nc1ccccn1` (stereo not drawn) [MLS000585015] yielded an IC50 of 9.75 µM.
